Source: US12655130B2 (ASSEMBLY BIOSCIENCES, INC., priority 2020, dated 2026)

system: HBV viral load (viral production from HepAD38 cells); assay: Activity of test compounds on viral production from HepAD38 cells (viral load by qPCR of HBV core sequence); type: cell-based; conditions: Hepatitis B virus, HePAD38, 120 h, viral load lowering, 5 days, qPCR of supernatant, read-out: VL HepAD38 EC50 range
In short: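 HepAD38 cells seeded at 50,000/well in tetracycline-free medium with 2% FBS, treated 5 days at 37 °C with compounds from 10 μM top concentration. Supernatant HBV DNA quantified by TaqMan qPCR of core sequence against HBV DNA standards, relative to DMSO wells; viability by CellTiter-Glo; EC50/CC50 by four-parameter logistic fit.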

SMILES	EC50 [nM]
Cn1cnc(C2CC3CC(O)CC3C2)c1C(=O)Nc1ccc(F)c(Cl)c1 (single isomer, unassigned) [Example 2, N-(3-Chloro-4-fluorophenyl)-4-(5-hydroxyoctahydropentalen-2-yl)-1-methyl-1H-imidazole-5-carboxamide]	< 10
Cc1nc(C2CC3CC(O)(c4c(Cl)cnn4C)CC3C2)c(C(=O)Nc2ccc(F)c(Cl)c2)n1C (stereo not drawn) [Example 138, 4-(5-(4-Chloro-1-methyl-1H-pyrazol-5-yl)-5-hydroxyoctahydropentalen-2-yl)-N-(3-chloro-4-fluorophenyl)-1,2-dimethyl-1H-imidazole-5-carboxamide]	< 10
O=C(Nc1ccc(F)c(Cl)c1)c1ocnc1C1CC2CC(O)CC2C1 (stereo not drawn) [Example 36, N-(3-Chloro-4-fluorophenyl)-4-(5-hydroxyoctahydropentalen-2-yl)oxazole-5-carboxamide]	50 to 500
CC(CO)Oc1cc(C2(O)CC3CC(c4ncn(C)c4C(=O)Nc4ccc(F)c(Cl)c4)CC3C2)n(C)n1 (single isomer, unassigned) [Example 68, N-(3-Chloro-4-fluorophenyl)-4-(5-hydroxy-5-(3-((1-hydroxypropan-2-yl)oxy)-1-methyl-1H-pyrazol-5-yl)octahydropentalen-2-yl)-1-methyl-1H-imidazole-5-carboxamide]	< 10
Cn1cnc(C2CC3CC(O)(Cn4ccc(C(C)(C)C)n4)CC3C2)c1C(=O)Nc1ccc(F)c(Cl)c1 (stereo not drawn) [Example 97, 4-(5-((3-(tert-butyl)-1H-pyrazol-1-yl)methyl)-5-hydroxyoctahydropentalen-2-yl)-N-(3-chloro-4-fluorophenyl)-1-methyl-1H-imidazole-5-carboxamide]	< 10
CC(N)c1cc(C2(O)CC3CC(c4ncn(C)c4C(=O)Nc4ccc(F)c(Cl)c4)CC3C2)n(C)n1 (stereo not drawn) [Example 112, 4-(5-(3-(1-Aminoethyl)-1-methyl-1H-pyrazol-5-yl)-5-hydroxyoctahydropentalen-2-yl)-N-(3-chloro-4-fluorophenyl)-1-methyl-1H-imidazole-5-carboxamide]	10 to 50
CC(C)n1nccc1C1(O)CC2CC(c3ncn(C)c3C(=O)Nc3ccc(F)c(Cl)c3)CC2C1 (stereo not drawn) [Example 120, N-(3-chloro-4-fluorophenyl)-4-(5-hydroxy-5-(1-isopropyl-1H-pyrazol-5-yl)octahydropentalen-2-yl)-1-methyl-1H-imidazole-5-carboxamide]	< 10
Cn1cnc(C2CC3CC(O)(c4cc(OCC(O)CO)nn4C)CC3C2)c1C(=O)Nc1ccc(F)c(Cl)c1 (single isomer, unassigned) [Example 205, N-(3-Chloro-4-fluorophenyl)-4-(5-(3-(2,3-dihydroxypropoxy)-1-methyl-1H-pyrazol-5-yl)-5-hydroxyoctahydropentalen-2-yl)-1-methyl-1H-imidazole-5-carboxamide]	< 10
Cn1cnc(C2CC3CC(O)(c4cccc(F)c4)CC3C2)c1C(=O)Nc1ccc(F)c(Cl)c1 (stereo not drawn) [Example 6, N-(3-Chloro-4-fluorophenyl)-4-(5-(3-fluorophenyl)-5-hydroxyoctahydropentalen-2-yl)-1-methyl-1H-imidazole-5-carboxamide]	< 10
CCn1nc(C(F)F)cc1C1(O)CC2CC(c3ncn(C)c3C(=O)Nc3ccc(F)c(F)c3)CC2C1 (stereo not drawn) [Example 177, 4-(5-(3-(Difluoromethyl)-1-ethyl-1H-pyrazol-5-yl)-5-hydroxyoctahydropentalen-2-yl)-N-(3,4-difluorophenyl)-1-methyl-1H-imidazole-5-carboxamide]	< 10
Cn1cnc(C2CC3CC(O)(c4c(F)c(OCC(C)(C)O)nn4C)CC3C2)c1C(=O)Nc1ccc(F)c(Cl)c1 (stereo not drawn) [Example 212, N-(3-Chloro-4-fluorophenyl)-4-(5-(4-fluoro-3-(2-hydroxy-2-methylpropoxy)-1-methyl-1H-pyrazol-5-yl)-5-hydroxyoctahydropentalen-2-yl)-1-methyl-1H-imidazole-5-carboxamide]	< 10
CCNc1nc(C2CC3CC(=O)CC3C2)c(C(=O)Nc2ccc(F)c(Cl)c2)n1C (stereo not drawn) [Example 49, N-(3-chloro-4-fluorophenyl)-2-(ethylamino)-1-methyl-4-(5-oxooctahydropentalen-2-yl)-1H-imidazole-5-carboxamide]	50 to 500
Cn1cc(C2(O)CC3CC(c4ncn(C)c4C(=O)Nc4ccc(F)c(Cl)c4)CC3C2)c(C(F)F)n1 (stereo not drawn) [Example 132, N-(3-chloro-4-fluorophenyl)-4-(5-(3-(difluoromethyl)-1-methyl-1H-pyrazol-4-yl)-5-hydroxyoctahydropentalen-2-yl)-1-methyl-1H-imidazole-5-carboxamide]	< 10
Cn1cnc(C2CC3CC(O)(c4cc(NCC(F)(F)F)nn4C)CC3C2)c1C(=O)Nc1ccc(F)c(Cl)c1 (stereo not drawn) [Example 197, N-(3-Chloro-4-fluorophenyl)-4-(5-hydroxy-5-(1-methyl-3-((2,2,2-trifluoroethyl)amino)-1H-pyrazol-5-yl)octahydropentalen-2-yl)-1-methyl-1H-imidazole-5-carboxamide]	< 10
Cn1cnc(C2CC3CC(O)(c4cc(C(C)(C)O)nn4C)CC3C2)c1C(=O)Nc1ccc(F)c(Cl)c1 (stereo not drawn) [Example 59, N-(3-Chloro-4-fluorophenyl)-4-(5-hydroxy-5-(3-(2-hydroxypropan-2-yl)-1-methyl-1H-pyrazol-5-yl)octahydropentalen-2-yl)-1-methyl-1H-imidazole-5-carboxamide]	< 10
CC(C)n1nc(C(F)F)cc1C1(O)CC2CC(c3ncn(C)c3C(=O)Nc3ccc(F)c(Cl)c3)CC2C1 (stereo not drawn) [Example 153, N-(3-Chloro-4-fluorophenyl)-4-(5-(3-(difluoromethyl)-1-isopropyl-1H-pyrazol-5-yl)-5-hydroxyoctahydropentalen-2-yl)-1-methyl-1H-imidazole-5-carboxamide]	< 10
Cn1cc(C2(O)CC3CC(c4ncn(C)c4C(=O)Nc4ccc(F)c(Cl)c4)CC3C2)c(C(N)=O)n1 (stereo not drawn) [Example 178, 4-(5-(5-((3-Chloro-4-fluorophenyl)carbamoyl)-1-methyl-1H-imidazol-4-yl)-2-hydroxyoctahydropentalen-2-yl)-1-methyl-1H-pyrazole-3-carboxamide]	< 10
Cn1cnc(C2CC3CC(O)(c4c[nH]nc4C(F)F)CC3C2)c1C(=O)Nc1ccc(F)c(Cl)c1 (stereo not drawn) [Example 170, N-(3-Chloro-4-fluorophenyl)-4-(5-(3-(difluoromethyl)-1H-pyrazol-4-yl)-5-hydroxyoctahydropentalen-2-yl)-1-methyl-1H-imidazole-5-carboxamide]	< 10
CC(C)n1nc(N)cc1C1(O)CC2CC(c3ncn(C)c3C(=O)Nc3ccc(F)c(Cl)c3)CC2C1 (stereo not drawn) [Example 77, 4-(5-(3-Amino-1-Isopropyl-1H-pyrazol-5-yl)-5-hydroxyoctahydropentalen-2-yl)-N-(3-chloro-4-fluorophenyl)-1-methyl-1H-imidazole-5-carboxamide]	< 10
C[C@H](O)c1cc(C2(O)CC3CC(c4ncn(C)c4C(=O)Nc4ccc(F)c(Cl)c4)CC3C2)n(C)n1 (stereo partly drawn) [Example 78, N-(3-Chloro-4-fluorophenyl)-4-(−5-hydroxy-5-(3-((S)-1-hydroxyethyl)-1-methyl-1H-pyrazol-5-yl)octahydropentalen-2-yl)-1-methyl-1H-imidazole-5-carboxamide]	< 10
Cn1cnc(C2CC3CC(O)(c4cc([N+](=O)[O-])nn4C)CC3C2)c1C(=O)Nc1ccc(F)c(Cl)c1 (single isomer, unassigned) [Example 50, N-(3-Chloro-4-fluorophenyl)-4-(5-hydroxy-5-(1-methyl-3-nitro-1H-pyrazol-5-yl)octahydropentalen-2-yl)-1-methyl-1H-imidazole-5-carboxamide]	< 10
COc1cnn(C)c1C1(O)CC2CC(c3ncn(C)c3C(=O)Nc3ccc(F)c(Cl)c3)CC2C1 (stereo not drawn) [Example 134, N-(3-chloro-4-fluorophenyl)-4-(5-hydroxy-5-(4-methoxy-1-methyl-1H-pyrazol-5-yl)octahydropentalen-2-yl)-1-methyl-1H-imidazole-5-carboxamide]	< 10
CC(C)C(N)C(=O)Nc1cc(C2(O)CC3CC(c4ncn(C)c4C(=O)Nc4ccc(F)c(Cl)c4)CC3C2)n(C)n1 (stereo not drawn) [Example 220, 4-(5-(3-(2-Amino-3-methylbutanamido)-1-methyl-1H-pyrazol-5-yl)-5-hydroxyoctahydropentalen-2-yl)-N-(3-chloro-4-fluorophenyl)-1-methyl-1H-imidazole-5-carboxamide]	< 10
CC(C)Cc1cc(C2(O)CC3CC(c4ncn(C)c4C(=O)Nc4ccc(F)c(Cl)c4)CC3C2)n(C)n1 (stereo not drawn) [Example 196, N-(3-Chloro-4-fluorophenyl)-4-(5-hydroxy-5-(3-isobutyl-1-methyl-1H-pyrazol-5-yl)octahydropentalen-2-yl)-1-methyl-1H-imidazole-5-carboxamide]	< 10
O=C(Nc1ccc(F)c(Cl)c1)c1scnc1C1CC2CC(O)CC2C1 (stereo not drawn) [Example 39, N-(3-Chloro-4-fluorophenyl)-4-(5-hydroxyoctahydropentalen-2-yl)thiazole-5-carboxamide]	< 10
CCn1nc(NCC(C)(C)O)c(F)c1C1(O)CC2CC(c3ncn(C)c3C(=O)Nc3ccc(F)c(Cl)c3)CC2C1 (stereo not drawn) [Example 215, N-(3-Chloro-4-fluorophenyl)-4-(5-(1-ethyl-4-fluoro-3-((2-hydroxy-2-methylpropyl)amino)-1H-pyrazol-5-yl)-5-hydroxyoctahydropentalen-2-yl)-1-methyl-1H-imidazole-5-carboxamide]	< 10

same assay, conditions: viral load lowering, 5 days, qPCR of supernatant, read-out: VL HepAD38 EC50 range

SMILES	EC50 [nM]
Cn1cnc(C2CC3CC(O)(CO)CC3C2)c1C(=O)Nc1ccc(F)c(Cl)c1 (single isomer, unassigned) [Example 20, N-(3-Chloro-4-fluorophenyl)-4-(5-hydroxy-5-(hydroxymethyl)octahydro-pentalen-2-yl)-1-methyl-1H-imidazole-5-carboxamide]	< 10
